# According to ChEMBL document CHEMBL1134123, “Potent nonpeptide GnRH receptor antagonists derived from substituted indole-5-carboxamides and -acetamides bearing a pyridine side-chain terminus” (Bioorg Med Chem Lett, 2001):
# pIC50: −log10 of the molar value.
# Experiments:
# [1] = target: T1, Gonadotropin-releasing hormone receptor (Rattus norvegicus, UniProt P30969); experiment: Inhibition of GnRH-stimulated luteinizing hormone (LH) release in rat pituitary cells; format: functional, cell-based, Pituitary gland cell
# T1 sequence (P30969 whole entry): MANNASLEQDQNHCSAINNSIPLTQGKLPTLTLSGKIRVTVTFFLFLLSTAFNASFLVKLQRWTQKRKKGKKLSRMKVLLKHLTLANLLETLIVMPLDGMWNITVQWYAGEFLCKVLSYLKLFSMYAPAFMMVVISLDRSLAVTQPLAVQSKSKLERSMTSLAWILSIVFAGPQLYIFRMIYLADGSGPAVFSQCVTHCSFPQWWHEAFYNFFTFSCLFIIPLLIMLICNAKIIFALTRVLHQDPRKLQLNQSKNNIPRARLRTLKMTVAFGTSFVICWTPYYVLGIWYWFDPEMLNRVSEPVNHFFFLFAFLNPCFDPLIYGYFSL
# [2] = target: T2, Gonadotropin-releasing hormone receptor (Homo sapiens, UniProt P30968); experiment: Inhibition of GnRH-stimulated phosphatidylinositol (PI) hydrolysis in cloned chinese hamster ovary (CHO) cells expressing human GnRH receptor.; format: functional, cell-based
# T2 sequence (P30968 whole entry): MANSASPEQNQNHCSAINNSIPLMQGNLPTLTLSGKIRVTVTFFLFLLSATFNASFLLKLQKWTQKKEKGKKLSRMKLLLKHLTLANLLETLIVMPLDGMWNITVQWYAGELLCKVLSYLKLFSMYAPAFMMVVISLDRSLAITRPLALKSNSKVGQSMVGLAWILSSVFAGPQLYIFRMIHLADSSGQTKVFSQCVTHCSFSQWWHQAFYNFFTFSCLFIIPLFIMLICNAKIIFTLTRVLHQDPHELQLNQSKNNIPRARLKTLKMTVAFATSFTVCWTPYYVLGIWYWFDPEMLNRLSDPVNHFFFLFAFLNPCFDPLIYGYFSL
# [3] = target: Gonadotropin-releasing hormone receptor (Homo sapiens) (UniProt P30968); experiment: Inhibition of [125I]buserelin binding to human Gonadotropin-releasing hormone receptor.
# [4] = target: T1, Gonadotropin-releasing hormone receptor; experiment: Inhibition of [125I]buserelin binding to rat Gonadotropin-releasing hormone receptor.
# [5] = target: T2, Gonadotropin-releasing hormone receptor; experiment: Inhibition of [125I]buserelin binding to human Gonadotropin-releasing hormone receptor.
# [6] = target: T1, Gonadotropin-releasing hormone receptor; experiment: Compound tested for the inhibition of GnRH-stimulated luteinizing hormone (LH) release in rat pituitary cells; format: functional, cell-based, Pituitary gland cell
Compound,pIC50 [1],pIC50 [2],pIC50 [3],pIC50 [4],pIC50 [5],pIC50 [6]
Cc1cc(C)cc(-c2[nH]c3ccc(C(C)(C)C(=O)N(CC(C)C)CC(C)C)cc3c2CCNCCCCc2ccncc2)c1,6.85,8.08,8.55,,,
CCN(CC)C(=O)c1ccc2[nH]c(-c3cc(C)cc(C)c3)c(CCNCCCCc3ccncc3)c2c1,6.33,7.92,,9.30,7.74,
CCCCN(CCCC)C(=O)c1ccc2[nH]c(-c3cc(C)cc(C)c3)c(CCNCCCCc3cccnc3)c2c1,6.00,,,9.40,,
Cc1cc(C)cc(-c2[nH]c3ccc(C(C)(C)C(=O)N4C5CCC4CC5)cc3c2CCNCCCCc2ccncc2)c1,7.15,7.74,8.85,,,
Cc1cc(C)cc(-c2[nH]c3ccc(C(=O)N4CCOCC4)cc3c2CCNCCCCc2ccncc2)c1,5.85,,,9.52,,
Cc1cc(C)cc(-c2[nH]c3ccc(C(C)(C)C(=O)N4CCCC4)cc3c2CCNCCCCc2cccnc2)c1,6.54,7.21,8.30,,,
Cc1cc(C)cc(-c2[nH]c3ccc(C(C)(C)C(=O)N4CCCC4)cc3c2CCNCCCCc2ccncc2)c1,,,8.32,,,6.47
Cc1cc(C)cc(-c2[nH]c3ccc(C(=O)N(CC(C)C)CC(C)C)cc3c2CCNCCCCc2ccncc2)c1,6.42,7.10,,9.22,8.15,
Cc1cc(C)cc(-c2[nH]c3ccc(C(C)(C)C(=O)N4C5CCC4CC5)cc3c2CCNCCCCc2cccnc2)c1,7.14,7.85,8.85,,,
Cc1cc(C)cc(-c2[nH]c3ccc(C(C)(C)C(=O)N4C5CCC4CC5)cc3c2CCN(CCCCc2ccncc2)CC(C)C)c1,,6.52,8.09,,,
Cc1cc(C)cc(-c2[nH]c3ccc(C(=O)N4CCOCC4)cc3c2CCNCCCCc2cccnc2)c1,5.80,,,9.40,,
Cc1cc(C)cc(-c2[nH]c3ccc(C(C)(C)C(=O)N4CCOCC4)cc3c2CCNCCCCc2ccncc2)c1,6.27,7.23,7.96,,,
Cc1cc(C)cc(-c2[nH]c3ccc(C(C)(C)C(N)=O)cc3c2CCNCCCCc2cccnc2)c1,,6.46,,,7.49,
CCN(CCCCc1ccncc1)CCc1c(-c2cc(C)cc(C)c2)[nH]c2ccc(C(C)(C)C(=O)N3C4CCC3CC4)cc12,6.14,7.05,8.66,,,
Cc1cc(C)cc(-c2[nH]c3ccc(C(C)(C)C(=O)N4C(C)CCC4C)cc3c2CCNCCCCc2ccncc2)c1 (stereo not given),6.80,7.82,8.55,,,
Cc1cc(C)cc(-c2[nH]c3ccc(C(=O)N(C)C)cc3c2CCNCCCCc2ccncc2)c1,5.84,,,9.10,,
CCN(CCO)C(=O)c1ccc2[nH]c(-c3cc(C)cc(C)c3)c(CCNCCCCc3ccncc3)c2c1,6.00,6.59,,,7.44,
Cc1cc(C)cc(-c2[nH]c3ccc(C(C)(C)C(=O)N(CC(C)C)CC(C)C)cc3c2CCNCCCCc2cccnc2)c1,6.40,7.66,8.77,,,
CCN(CC)C(=O)C(C)(C)c1ccc2[nH]c(-c3cc(C)cc(C)c3)c(CCNCCCCc3cccnc3)c2c1,6.62,7.03,8.48,,,
Cc1cc(C)cc(-c2[nH]c3ccc(C(=O)N4C(C)CCC4C)cc3c2CCNCCCCc2ccncc2)c1 (stereo not given),6.47,,,9.52,,
CCC(CC)(C(=O)N1C2CCC1CC2)c1ccc2[nH]c(-c3cc(C)cc(C)c3)c(CCNCCCCc3ccncc3)c2c1,6.59,7.40,8.77,,,
Cc1cc(C)cc(-c2[nH]c3ccc(C(=O)N4C5CCC4CC5)cc3c2CCNCCCCc2ccncc2)c1,,6.59,,,7.49,
CCC(C)(C(=O)N1C2CCC1CC2)c1ccc2[nH]c(-c3cc(C)cc(C)c3)c(CCNCCCCc3ccncc3)c2c1 (stereo not given),6.62,7.42,9.00,,,
CCN(CC)C(=O)c1ccc2[nH]c(-c3cc(C)cc(C)c3)c(CCN(C)CCCCc3ccncc3)c2c1,6.37,7.24,,,7.52,
Cc1cc(C)cc(-c2[nH]c3ccc(C4(C(=O)N5C6CCC5CC6)CCC4)cc3c2CCNCCCCc2ccncc2)c1,,6.77,8.92,,,

Compound,pIC50 [1],pIC50 [2],pIC50 [3],pIC50 [4],pIC50 [5],pIC50 [6]
Cc1cc(C)cc(-c2[nH]c3ccc(C(=O)N4C(C)CCC4C)cc3c2CCNCCCCc2cccnc2)c1 (stereo not given),6.44,7.21,,,8.44,
Cc1cc(C)cc(-c2[nH]c3ccc(C(=O)N(CC(C)C)CC(C)C)cc3c2CCNCCCCc2cccnc2)c1,6.82,6.92,,9.15,8.30,
Cc1cc(C)cc(-c2[nH]c3ccc(C(=O)NC(C)C)cc3c2CCNCCCCc2cccnc2)c1,< 5.89,5.92,,,7.26,
COCCN(CCOC)C(=O)c1ccc2[nH]c(-c3cc(C)cc(C)c3)c(CCNCCCCc3cccnc3)c2c1,5.89,6.21,,,7.35,
CCN(CCO)C(=O)c1ccc2[nH]c(-c3cc(C)cc(C)c3)c(CCNCCCCc3cccnc3)c2c1,5.92,,,9.22,,
Cc1cc(C)cc(-c2[nH]c3ccc(C(=O)N(C(C)C)C(C)C)cc3c2CCNCCCCc2ccncc2)c1,6.40,,,9.52,,
CCN(C(=O)c1ccc2[nH]c(-c3cc(C)cc(C)c3)c(CCNCCCCc3cccnc3)c2c1)C(C)C,6.08,6.96,,,7.96,
Cc1cc(C)cc(-c2[nH]c3ccc(C(C)(C)C(=O)N4CCCCC4)cc3c2CCNCCCCc2ccncc2)c1,5.92,7.42,8.74,,,
CCN(C(=O)C(C)(C)c1ccc2[nH]c(-c3cc(C)cc(C)c3)c(CCNCCCCc3ccncc3)c2c1)C1CCCCC1,6.02,7.27,8.64,,,
Cc1cc(C)cc(-c2[nH]c3ccc(C(=O)N4CCCC4)cc3c2CCNCCCCc2ccncc2)c1,< 5.89,,,9.30,,
Cc1cc(C)cc(-c2[nH]c3ccc(C(=O)N4CCCC4)cc3c2CCNCCCCc2cccnc2)c1,5.29,,,9.22,,
CCN(CC)C(=O)c1ccc2[nH]c(-c3cc(C)cc(C)c3)c(CCNCCCCc3cccnc3)c2c1,6.40,6.72,,9.22,7.64,
Cc1cc(C)cc(-c2[nH]c3ccc(C(C)(C)C(=O)N(C)C)cc3c2CCNCCCCc2cccnc2)c1,6.17,,,9.30,,
Cc1cc(C)cc(-c2[nH]c3ccc(C(C)(C)C(=O)N4CC(C)(C)C4)cc3c2CCNCCCCc2cccnc2)c1,6.72,7.21,9.00,,,
CCN(C(=O)c1ccc2[nH]c(-c3cc(C)cc(C)c3)c(CCNCCCCc3ccncc3)c2c1)C1CCCCCCC1,7.09,7.82,,,8.72,
CCN(CC)C(=O)C(C)(C)c1ccc2[nH]c(-c3cc(C)cc(C)c3)c(CCNCCCCc3ccncc3)c2c1,6.68,7.24,8.49,,,
Cc1cc(C)cc(-c2[nH]c3ccc(C(=O)N(C)C)cc3c2CCNCCCCc2cccnc2)c1,5.59,,,9.15,,
CCN(C(=O)c1ccc2[nH]c(-c3cc(C)cc(C)c3)c(CCNCCCCc3cccnc3)c2c1)C1CCCCC1,6.85,7.80,,9.70,8.64,
Cc1cc(C)cc(-c2[nH]c3ccc(C(=O)N(CC(F)(F)F)CC(F)(F)F)cc3c2CCNCCCCc2ccncc2)c1,5.44,7.04,,9.22,7.44,
Cc1cc(C)cc(-c2[nH]c3ccc(C(C)(C)C(=O)N(C)C)cc3c2CCNCCCCc2ccncc2)c1,6.03,,,9.52,,
CCN(C(=O)c1ccc2[nH]c(-c3cc(C)cc(C)c3)c(CCNCCCCc3ccncc3)c2c1)C1CCCCC1,6.89,7.66,,9.40,8.55,
Cc1cc(C)cc(-c2[nH]c3ccc(C(C)(C)C(=O)N4C5CCC4CC5)cc3c2CCN(C)CCCCc2ccncc2)c1,7.15,6.96,8.82,,,
Cc1cc(C)cc(-c2[nH]c3ccc(C(C)(C)C(=O)N4C5CCC4CC5)cc3c2CCN(CCCCc2ccncc2)C(C)C)c1,,6.70,8.51,,,
CCCCN(CCCC)C(=O)c1ccc2[nH]c(-c3cc(C)cc(C)c3)c(CCNCCCCc3ccncc3)c2c1,6.62,,,9.40,,
